Measurements reported in publication PMC8494914, “Elexacaftor is a CFTR potentiator and acts synergistically with ivacaftor during acute and chronic treatment” (Scientific Reports, 2021).

Legend:
[1] = target: T1, R117H-CFTR (Homo sapiens, UniProt P13569, R117H); assay: Ussing chamber transepithelial current, acute potentiation; assay type: cell-based
T1 construct: R117H-CFTR expressed in FRT cells

[2] = target: T2, cystic fibrosis transmembrane conductance regulator (CFTR) (Homo sapiens, UniProt P13569); assay: Ussing chamber transepithelial current, concentration-response of acute potentiation; assay type: cell-based
T2 construct: endogenous CFTR in non-CF human nasal epithelial cells
T2 sequence (P13569 whole entry): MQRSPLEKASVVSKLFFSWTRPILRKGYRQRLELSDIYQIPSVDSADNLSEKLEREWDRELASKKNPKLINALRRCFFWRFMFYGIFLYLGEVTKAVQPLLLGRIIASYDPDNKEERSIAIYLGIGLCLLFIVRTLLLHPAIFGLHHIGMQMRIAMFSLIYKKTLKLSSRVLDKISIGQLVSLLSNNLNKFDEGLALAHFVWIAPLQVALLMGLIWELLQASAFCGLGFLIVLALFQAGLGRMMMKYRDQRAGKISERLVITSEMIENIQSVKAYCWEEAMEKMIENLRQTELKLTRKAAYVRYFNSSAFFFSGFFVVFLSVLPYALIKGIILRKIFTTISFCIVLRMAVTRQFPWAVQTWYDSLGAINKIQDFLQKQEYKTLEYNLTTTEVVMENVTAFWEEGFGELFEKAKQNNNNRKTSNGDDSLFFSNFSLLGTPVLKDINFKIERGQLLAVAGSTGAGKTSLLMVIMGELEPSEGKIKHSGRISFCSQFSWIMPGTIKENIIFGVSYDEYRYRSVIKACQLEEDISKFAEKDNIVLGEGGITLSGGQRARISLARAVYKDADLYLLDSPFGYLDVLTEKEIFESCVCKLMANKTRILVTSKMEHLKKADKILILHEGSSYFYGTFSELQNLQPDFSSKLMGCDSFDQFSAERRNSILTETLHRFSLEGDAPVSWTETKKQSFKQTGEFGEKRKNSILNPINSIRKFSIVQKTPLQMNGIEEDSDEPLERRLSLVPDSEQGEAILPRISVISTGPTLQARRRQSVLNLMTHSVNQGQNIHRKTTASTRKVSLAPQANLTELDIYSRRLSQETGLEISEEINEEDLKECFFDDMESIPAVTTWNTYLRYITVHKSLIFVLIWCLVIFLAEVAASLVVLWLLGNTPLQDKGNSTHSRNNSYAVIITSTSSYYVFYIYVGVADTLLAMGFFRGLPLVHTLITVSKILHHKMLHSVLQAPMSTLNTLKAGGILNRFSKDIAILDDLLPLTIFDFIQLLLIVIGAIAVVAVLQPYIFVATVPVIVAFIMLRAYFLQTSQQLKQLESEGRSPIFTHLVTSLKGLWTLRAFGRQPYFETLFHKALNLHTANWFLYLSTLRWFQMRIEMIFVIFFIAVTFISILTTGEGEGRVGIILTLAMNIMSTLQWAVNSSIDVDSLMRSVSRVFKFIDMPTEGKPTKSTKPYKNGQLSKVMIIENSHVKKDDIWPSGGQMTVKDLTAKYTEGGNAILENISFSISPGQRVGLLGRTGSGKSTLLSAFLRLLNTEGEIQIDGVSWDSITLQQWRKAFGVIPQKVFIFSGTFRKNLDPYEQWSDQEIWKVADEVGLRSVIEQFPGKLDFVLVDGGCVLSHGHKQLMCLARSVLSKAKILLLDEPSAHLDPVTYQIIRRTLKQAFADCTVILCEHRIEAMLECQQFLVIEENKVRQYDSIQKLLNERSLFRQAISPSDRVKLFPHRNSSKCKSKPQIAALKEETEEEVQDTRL

T1 sequence (P13569 whole entry R117H): as the sequence (P13569 whole entry) above, with R117H counted along it

EC50 [2]	SMILES	Ussing chamber transepithelial current, acute potentiation [1]
1.5 ± 1.4 nM	Cc1nn(C)cc1S(=O)(=O)NC(=O)c1ccc(-n2ccc(OCC(C)(C)C(F)(F)F)n2)nc1N1C[C@@H](C)CC1(C)C [VX-445, elexacaftor]	We also found that VX-445 potentiates R117H-CFTR expressed in FRT cells
–	CC(C)(C)c1cc(C(C)(C)C)c(NC(=O)c2c[nH]c3ccccc3c2=O)cc1O [VX-770, ivacaftor]	VX-445 and VX-770 did not exhibit the same high degree of synergy in potentiating R117H-CFTR
